One data set addresses T1, RICK-STREP 1 (Homo sapiens, UniProt O43353).
T1 construct: Strep
Kind of data set: General kinase assay: RICK. The format is biochemical. The conditions noted are these: concentration 10 μM; read-out: Inhibitory effect on Target RICK-STREP 1. As to the method:
(§1) General Assay Protocol for all Kinases [[[…]]] [[[…]]] Reaction Buffer: Final Assay Concentrations: [[[…]]] Pipetting Sequence: • 1) Add 8 μl 50 μM MBP in Reaction Buffer to each well of Assay Plate • 2) Add 10 μl 500 mM EDTA in H2O to C- wells • 3) Add 8 μl 62.5 μCi/ml Adenosine 5'-[γ-^33P]triphosphate+5 μM ATP in Reaction Buffer to each well • 4) Add 8 μl 5 fold concentrated inhibitor in 5% DMSO in Reaction Buffer to each well except to C- and C+ wells • 5) Add 8 μl 5% DMSO in Reaction Buffer to C- and C+ wells • 6) Add 8 μl 5 fold concentrated kinase in Reaction Buffer to each well • 7) Incubate 1 hr at room temperature • 8) Add 10 μl 50 mM EDTA in H2O to each well except to C- wells • 9) Prepare MAPH plates by adding 200 μl 0.75% H3PO4 to each well • 10) Exhaust 0.75% H3PO4 using Millipore vacuum station • 11) Add 60 μl 0.75% H3PO4 to each well of MAPH Filter Plate • 12) Transfer 30 μl sample per well from Assay Plate to corresponding well of MAPH Filter Plate • 13) Incubate 30 min at room temperature • 14) Wash each well of MAPH Filter Plates 3× with 200 μl 0.75% H3PO4 using Millipore vacuum station • 15) Add 20 μl Szintilation Liquid to each well of MAPH Filter Plate • 16) Seal MAPH Filter Plate • 17) Store MAPH Filter Plate 30 min in darkness • 18) Quantify radioactivity

Another data set concerns the target T2, CK1-alpha GST (Homo sapiens, UniProt P48729).
T2 construct: GST
Kind of data set: General kinase assay: CK1-alpha. To be noted: concentration 10 μM; read-out: Inhibitory effect on Target CK1-alpha GST. The format is biochemical. As to the method: as §1

In the next data set the target is T3, EGFR GST-HIS (Homo sapiens, UniProt P00533).
T3 construct: GST; His
Briefly: General kinase assay: EGFR. The class given is biochemical. The conditions noted are these: concentration 10 μM; read-out: Inhibitory effect on Target EGFR GST-HIS. How it is done: as §1

A further data set concerns the target CDK2/CycA (Homo sapiens, UniProt P24941). Briefly: General kinase assay: CDK2/CycA. The conditions noted are these: concentration 10 μM; read-out: Inhibitory effect on Target CDK2/CycA. The format is biochemical. How it is done:
as §1

Another data set addresses T4, PDGFRbeta GST (Homo sapiens, UniProt P09619).
T4 construct: GST
Kind of data set: General kinase assay: PDGFRbeta. The format is biochemical. To be noted: concentration 10 μM; read-out: Inhibitory effect on Target PDGFRbeta GST. As to the method: as §1

The next data set deals with T5, Kit human GST (Homo sapiens, UniProt P10721).
T5 construct: GST
Briefly: General kinase assay: Kit. The format is biochemical. The conditions noted are these: concentration 10 μM; read-out: Inhibitory effect on Target Kit human GST. How it is done:
as §1

The next data set deals with T6, GSK-3beta HIS (Homo sapiens, UniProt P49841).
T6 construct: His
Briefly: General kinase assay: GSK-3beta. The format is biochemical. To be noted: concentration 10 μM; read-out: Inhibitory effect on Target GSK-3beta HIS. As to the method:
as §1

In data set [1] the target is T7, mycobacterial protein kinase G (PknG) (Mycobacterium tuberculosis, UniProt P9WI73).
T7 construct: GST; made in house; host or cells: E. coli BL21
Briefly: biochemical. To be noted: read-out: Inhibition of PknG (IC50, [μM]).

Another data set deals with T8, SRPK1 GST (Homo sapiens, UniProt Q96SB4).
T8 construct: GST
Briefly: General kinase assay: SRPK1. The format is biochemical. To be noted: concentration 10 μM; read-out: Inhibitory effect on Target SRPK1 GST. As to the method:
as §1

The target of a further data set is T9, c-Src HIS (Homo sapiens, UniProt P12931).
T9 construct: His
Briefly: General kinase assay: c-Src. To be noted: concentration 10 μM; read-out: Inhibitory effect on Target c-Src HIS. The class given is biochemical. As to the method:
as §1

A further data set deals with T10, cMet GST-HIS (Homo sapiens, UniProt P08581).
T10 construct: GST; His
Briefly: General kinase assay: cMet. The format is biochemical. To be noted: concentration 10 μM; read-out: Inhibitory effect on Target cMet GST-HIS. How it is done: as §1

Structures can show the parent of a compound that is named as a salt. Bounds are passed on as bounds.

This note sets out measurements from patent US20070275962A1, “Heterobicyclic Compounds as Pharmaceutically Active Agents” (GPC BIOTECH AG, priority 2003, published 2007).

T6 sequence (P49841 whole entry): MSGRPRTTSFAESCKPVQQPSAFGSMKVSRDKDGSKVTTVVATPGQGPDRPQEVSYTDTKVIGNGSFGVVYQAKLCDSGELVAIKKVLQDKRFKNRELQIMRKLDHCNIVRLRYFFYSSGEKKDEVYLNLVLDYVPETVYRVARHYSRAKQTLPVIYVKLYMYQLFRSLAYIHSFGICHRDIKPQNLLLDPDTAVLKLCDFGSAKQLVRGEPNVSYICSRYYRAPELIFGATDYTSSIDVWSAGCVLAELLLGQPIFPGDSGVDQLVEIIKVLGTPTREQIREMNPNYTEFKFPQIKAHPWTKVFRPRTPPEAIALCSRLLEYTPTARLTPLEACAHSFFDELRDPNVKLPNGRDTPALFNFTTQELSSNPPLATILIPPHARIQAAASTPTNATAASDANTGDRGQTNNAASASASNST
T7 sequence (P9WI73 whole entry): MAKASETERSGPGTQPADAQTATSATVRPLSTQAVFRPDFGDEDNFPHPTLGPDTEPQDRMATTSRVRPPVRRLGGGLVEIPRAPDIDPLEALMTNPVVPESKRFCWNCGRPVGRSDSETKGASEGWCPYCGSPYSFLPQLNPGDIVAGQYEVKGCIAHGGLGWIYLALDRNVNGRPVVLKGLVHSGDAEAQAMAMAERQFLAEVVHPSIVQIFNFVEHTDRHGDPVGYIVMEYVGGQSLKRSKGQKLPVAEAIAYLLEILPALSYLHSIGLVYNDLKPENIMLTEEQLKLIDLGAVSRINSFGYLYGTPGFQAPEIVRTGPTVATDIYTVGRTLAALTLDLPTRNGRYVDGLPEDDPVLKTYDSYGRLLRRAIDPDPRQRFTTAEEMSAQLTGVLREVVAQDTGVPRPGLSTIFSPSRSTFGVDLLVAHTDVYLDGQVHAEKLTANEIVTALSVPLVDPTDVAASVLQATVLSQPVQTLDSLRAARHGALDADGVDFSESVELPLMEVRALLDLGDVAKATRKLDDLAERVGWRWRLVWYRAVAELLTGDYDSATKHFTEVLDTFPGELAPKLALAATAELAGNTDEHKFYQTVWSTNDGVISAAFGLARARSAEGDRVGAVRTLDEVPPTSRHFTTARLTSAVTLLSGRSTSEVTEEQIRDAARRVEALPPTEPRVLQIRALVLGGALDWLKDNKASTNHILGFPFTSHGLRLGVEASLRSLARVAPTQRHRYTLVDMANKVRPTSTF
T2 sequence (P48729 whole entry): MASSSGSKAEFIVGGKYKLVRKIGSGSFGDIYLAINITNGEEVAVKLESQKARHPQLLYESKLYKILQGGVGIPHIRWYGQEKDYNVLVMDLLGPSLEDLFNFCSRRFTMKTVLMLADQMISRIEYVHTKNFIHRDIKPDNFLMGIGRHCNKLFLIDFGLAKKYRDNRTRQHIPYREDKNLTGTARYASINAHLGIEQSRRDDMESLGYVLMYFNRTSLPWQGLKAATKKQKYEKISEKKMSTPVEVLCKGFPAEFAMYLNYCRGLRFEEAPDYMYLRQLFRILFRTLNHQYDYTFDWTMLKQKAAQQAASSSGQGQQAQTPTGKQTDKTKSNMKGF
T3 sequence (P00533 25-1210): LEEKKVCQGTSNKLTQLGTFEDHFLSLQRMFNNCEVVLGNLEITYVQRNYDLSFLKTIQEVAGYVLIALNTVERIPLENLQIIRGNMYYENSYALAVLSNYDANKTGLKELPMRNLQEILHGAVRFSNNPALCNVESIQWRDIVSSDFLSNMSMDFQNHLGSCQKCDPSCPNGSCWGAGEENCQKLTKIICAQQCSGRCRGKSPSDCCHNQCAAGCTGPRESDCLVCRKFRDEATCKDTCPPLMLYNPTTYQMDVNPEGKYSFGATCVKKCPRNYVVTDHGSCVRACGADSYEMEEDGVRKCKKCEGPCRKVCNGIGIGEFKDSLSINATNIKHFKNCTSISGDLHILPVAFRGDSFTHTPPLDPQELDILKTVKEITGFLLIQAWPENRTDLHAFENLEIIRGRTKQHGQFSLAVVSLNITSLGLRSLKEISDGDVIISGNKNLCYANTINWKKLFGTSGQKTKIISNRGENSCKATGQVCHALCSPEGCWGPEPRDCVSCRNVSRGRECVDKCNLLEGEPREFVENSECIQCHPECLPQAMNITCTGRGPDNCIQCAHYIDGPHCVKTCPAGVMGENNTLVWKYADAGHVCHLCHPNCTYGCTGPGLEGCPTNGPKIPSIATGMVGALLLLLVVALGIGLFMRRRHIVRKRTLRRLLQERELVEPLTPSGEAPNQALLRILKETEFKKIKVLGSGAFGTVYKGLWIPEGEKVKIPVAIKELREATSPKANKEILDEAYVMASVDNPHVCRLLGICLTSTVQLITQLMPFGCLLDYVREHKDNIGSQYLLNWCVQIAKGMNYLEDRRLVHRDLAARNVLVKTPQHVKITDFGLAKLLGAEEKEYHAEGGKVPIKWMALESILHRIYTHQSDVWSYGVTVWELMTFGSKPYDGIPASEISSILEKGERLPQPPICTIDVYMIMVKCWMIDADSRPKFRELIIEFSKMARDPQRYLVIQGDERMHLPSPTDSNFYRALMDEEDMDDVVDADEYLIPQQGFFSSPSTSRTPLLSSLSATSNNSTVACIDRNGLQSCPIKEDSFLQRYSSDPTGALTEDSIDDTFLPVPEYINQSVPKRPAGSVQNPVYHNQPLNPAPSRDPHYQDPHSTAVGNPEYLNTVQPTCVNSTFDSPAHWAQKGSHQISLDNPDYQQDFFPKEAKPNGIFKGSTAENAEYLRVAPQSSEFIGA
T1 sequence (O43353 whole entry): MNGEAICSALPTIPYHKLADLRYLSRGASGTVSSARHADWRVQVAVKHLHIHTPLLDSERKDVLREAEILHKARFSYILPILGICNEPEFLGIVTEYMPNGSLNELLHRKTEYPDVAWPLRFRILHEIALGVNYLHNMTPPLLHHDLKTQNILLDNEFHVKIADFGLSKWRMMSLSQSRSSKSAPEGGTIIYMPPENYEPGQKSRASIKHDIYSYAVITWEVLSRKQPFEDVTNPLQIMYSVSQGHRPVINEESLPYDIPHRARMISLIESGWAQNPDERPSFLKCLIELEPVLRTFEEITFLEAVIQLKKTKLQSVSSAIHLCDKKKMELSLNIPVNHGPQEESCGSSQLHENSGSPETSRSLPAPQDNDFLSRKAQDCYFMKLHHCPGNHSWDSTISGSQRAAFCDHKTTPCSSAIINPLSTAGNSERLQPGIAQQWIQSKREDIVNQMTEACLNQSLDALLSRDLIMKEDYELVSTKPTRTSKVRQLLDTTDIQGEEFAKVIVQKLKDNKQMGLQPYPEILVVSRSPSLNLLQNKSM
T8 sequence (Q96SB4 whole entry): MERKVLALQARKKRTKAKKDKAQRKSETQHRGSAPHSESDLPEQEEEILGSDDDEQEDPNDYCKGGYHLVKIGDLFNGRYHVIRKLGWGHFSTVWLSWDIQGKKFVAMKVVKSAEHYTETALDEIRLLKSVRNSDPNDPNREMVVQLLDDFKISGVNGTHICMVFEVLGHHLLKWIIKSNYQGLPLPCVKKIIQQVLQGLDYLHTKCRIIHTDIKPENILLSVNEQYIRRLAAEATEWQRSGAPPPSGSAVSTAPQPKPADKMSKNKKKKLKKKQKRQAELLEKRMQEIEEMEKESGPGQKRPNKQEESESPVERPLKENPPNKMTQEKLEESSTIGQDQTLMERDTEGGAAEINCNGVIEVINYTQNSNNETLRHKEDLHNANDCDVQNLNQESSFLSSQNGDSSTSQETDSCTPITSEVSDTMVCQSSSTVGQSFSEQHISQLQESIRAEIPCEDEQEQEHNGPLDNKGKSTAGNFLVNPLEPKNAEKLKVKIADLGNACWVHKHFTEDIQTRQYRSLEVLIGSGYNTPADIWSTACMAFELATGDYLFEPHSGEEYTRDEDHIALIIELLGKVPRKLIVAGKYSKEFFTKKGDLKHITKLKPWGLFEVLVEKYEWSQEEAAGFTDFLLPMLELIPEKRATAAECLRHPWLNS
T4 sequence (P09619 33-1106): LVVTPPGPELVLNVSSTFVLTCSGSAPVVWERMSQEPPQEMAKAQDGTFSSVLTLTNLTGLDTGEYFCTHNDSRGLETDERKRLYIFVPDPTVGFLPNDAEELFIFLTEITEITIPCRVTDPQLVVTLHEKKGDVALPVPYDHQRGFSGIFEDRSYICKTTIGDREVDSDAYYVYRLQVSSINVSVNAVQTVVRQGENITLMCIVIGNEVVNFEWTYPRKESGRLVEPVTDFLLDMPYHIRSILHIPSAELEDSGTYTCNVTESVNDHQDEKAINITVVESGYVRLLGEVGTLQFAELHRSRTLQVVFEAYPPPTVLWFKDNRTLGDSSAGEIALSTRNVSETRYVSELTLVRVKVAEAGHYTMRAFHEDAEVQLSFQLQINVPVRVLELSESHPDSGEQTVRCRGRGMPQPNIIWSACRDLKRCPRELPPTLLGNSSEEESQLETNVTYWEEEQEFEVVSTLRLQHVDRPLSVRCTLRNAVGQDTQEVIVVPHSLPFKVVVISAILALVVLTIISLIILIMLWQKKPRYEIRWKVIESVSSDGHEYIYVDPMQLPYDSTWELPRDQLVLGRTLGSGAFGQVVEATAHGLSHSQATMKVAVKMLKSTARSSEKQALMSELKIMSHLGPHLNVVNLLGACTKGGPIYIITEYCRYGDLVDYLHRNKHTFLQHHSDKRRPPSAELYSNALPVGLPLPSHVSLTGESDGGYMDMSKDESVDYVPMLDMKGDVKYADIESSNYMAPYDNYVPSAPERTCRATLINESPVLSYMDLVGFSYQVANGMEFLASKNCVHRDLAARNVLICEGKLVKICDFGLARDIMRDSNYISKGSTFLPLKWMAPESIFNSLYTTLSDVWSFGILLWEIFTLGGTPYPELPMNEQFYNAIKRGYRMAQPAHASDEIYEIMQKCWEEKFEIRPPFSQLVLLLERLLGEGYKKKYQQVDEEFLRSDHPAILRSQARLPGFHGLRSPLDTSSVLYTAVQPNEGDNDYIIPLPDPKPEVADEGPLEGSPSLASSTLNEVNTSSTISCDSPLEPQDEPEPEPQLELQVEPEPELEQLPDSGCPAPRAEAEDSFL

As to `NN=C1CCc2c(sc(NC(=O)C3CC3)c2C(N)=O)C1` [Compound D115, 2-(Cyclopropanecarbonyl-amino)-6-hydrazono-4,5,6,7-tetrahydro-benzo[b]thiophene-3-carboxylic acid amide], the inhibition at 10 µM on RICK-STREP 1, on CK1-alpha GST, at EGFR GST-HIS, at CDK2/CycA, at PDGFRbeta GST and at Kit human GST was greater than 50% in each case. The inhibition at 10 µM at GSK-3beta HIS was greater than 50%. In [1], the half-maximal inhibitory concentration (IC50) (as a rule, the concentration that inhibits the measured activity by half) is 0.1 to 1 µM.

In the case of `NC(=O)c1c(NC(=O)Nc2ccc(F)cc2)sc2c1CCC(=O)C2` [Compound D121, 2-[3-(4-Fluoro-phenyl)-ureido]-6-oxo-4,5,6,7-tetrahydro-benzo[b]thiophene-3-carboxylic acid amide], the inhibition at 10 µM at RICK-STREP 1, at CK1-alpha GST, on EGFR GST-HIS, at CDK2/CycA, on GSK-3beta HIS and on SRPK1 GST was greater than 50% throughout. Besides, the inhibition at 10 µM on c-Src HIS was greater than 50%.

Consider `NC(=O)c1c(NC(=O)C2CC2)sc2c(Cl)c(OCCO)c(Cl)cc12` [Compound A49, 5,7-Dichloro-2-(cyclopropanecarbonyl-amino)-6-(2-hydroxyethoxy)-benzo[b]thiophene-3-carboxylic acid amide], for which the melting point (in general, the temperature, or range, at which the solid turns liquid) lay in the range of 250 to 254 °C.

In the case of `NC(=O)c1c(NC(=O)C2CC2)sc2c1CCC(Br)(Br)C2=O` [Compound D67, 6,6-Dibromo-2-(cyclopropanecarbonyl-amino)-7-oxo-4,5,6,7-tetrahydro-benzo[b]thiophene-3-carboxylic acid amide], the inhibition at 10 µM on RICK-STREP 1, on CK1-alpha GST, at EGFR GST-HIS, on CDK2/CycA, at GSK-3beta HIS and on SRPK1 GST was greater than 50% in each case. Moreover, at cMet GST-HIS, the inhibition at 10 µM is greater than 50%. Besides, in [1], the half-inhibitory concentration (IC50) was in the range of 0.1 to 1 µM.

With `NC(=O)c1c(NC(=O)Nc2ccccc2)sc2c1CCC1(C2)OCCO1` (as salt: HCl) [Compound D199, 2-[(Anilinocarbonyl)amino]-4,7-dihydro-5H-spiro[1-benzothiophene-6,2′-[1,3]dioxolane]-3-carboxamide], the melting point lay within 212 to 213 °C.

Take `CCOC(=O)Nc1sc2c(Cl)c(O)c(Cl)cc2c1C(N)=O` [Compound A120, (3-Carbamoyl-5,7-dichloro-6-hydroxy-benzo[b]thiophen-2-yl)-carbamic acid ethyl ester]: the melting point is 235 to 240 °C.

As for `O=C(Nc1sc2c(c1S(=O)(=O)O)CCCC2)C1CC1` [Compound D216, 2-(Cyclopropanecarbonyl-amino)-4,5,6,7-tetrahydro-benzo[b]thiophene-3-sulfonic acid], the melting point is 225 to 230 °C (dec.).

Regarding `NC(=O)c1c(NC(=O)Nc2ccc(F)cc2)sc2c1CCSC2` [Compound C45, 2-[3-(4-Fluoro-phenyl)-ureido]-4,7-dihydro-5H-thieno[2,3-c]thiopyran-3-carboxylic acid amide], the inhibition at 10 µM at RICK-STREP 1, at CDK2/CycA, at PDGFRbeta GST, on GSK-3beta HIS and on SRPK1 GST was greater than 50% each time. Moreover, the half-maximal inhibitory concentration (IC50) in data set [1] is 0.1 to 1 µM.

On to `NS(=O)(=O)c1c(NC(=O)C2CC2)sc2c1CCCC2` [Compound D86, Cyclopropanecarboxylic acid (3-sulfamoyl-4,5,6,7-tetrahydro-benzo[b]thiophen-2-yl)-amide], for which the melting point is 235 to 238 °C (dec.).
